From article doi:10.1101/2023.11.24.568596v1 (biorxiv, 2023) come the findings set out here.

Targets include BRAF (Homo sapiens, UniProt P15056); CDKL1 (Homo sapiens, UniProt Q00532); CK1d (Homo sapiens, UniProt P48730); PCTAIRE1 (Homo sapiens, UniProt Q00536).
Common to all, as to settings: binder
A further assay concerns the target T1, DMPK1 (Homo sapiens, UniProt Q09013).
T1 sequence (Q09013 1-629): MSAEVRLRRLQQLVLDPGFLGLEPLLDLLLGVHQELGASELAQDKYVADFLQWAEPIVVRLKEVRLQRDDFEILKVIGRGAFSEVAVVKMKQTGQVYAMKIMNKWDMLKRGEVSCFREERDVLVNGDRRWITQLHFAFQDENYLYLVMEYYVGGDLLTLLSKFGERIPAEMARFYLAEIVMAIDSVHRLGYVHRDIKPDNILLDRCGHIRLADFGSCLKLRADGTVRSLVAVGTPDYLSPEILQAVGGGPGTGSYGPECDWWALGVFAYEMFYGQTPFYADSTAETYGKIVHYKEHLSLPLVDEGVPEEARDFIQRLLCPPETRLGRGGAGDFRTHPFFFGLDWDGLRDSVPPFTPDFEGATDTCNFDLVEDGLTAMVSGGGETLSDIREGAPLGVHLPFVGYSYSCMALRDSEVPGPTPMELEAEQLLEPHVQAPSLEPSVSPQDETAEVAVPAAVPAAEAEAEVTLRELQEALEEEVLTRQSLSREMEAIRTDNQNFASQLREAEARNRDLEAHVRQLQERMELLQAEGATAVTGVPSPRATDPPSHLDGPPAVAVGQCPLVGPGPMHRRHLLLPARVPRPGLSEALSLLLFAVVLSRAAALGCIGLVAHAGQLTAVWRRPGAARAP

Another assay deals with T2, EphB1 (Homo sapiens, UniProt P54762).
T2 sequence (P54762 1-984): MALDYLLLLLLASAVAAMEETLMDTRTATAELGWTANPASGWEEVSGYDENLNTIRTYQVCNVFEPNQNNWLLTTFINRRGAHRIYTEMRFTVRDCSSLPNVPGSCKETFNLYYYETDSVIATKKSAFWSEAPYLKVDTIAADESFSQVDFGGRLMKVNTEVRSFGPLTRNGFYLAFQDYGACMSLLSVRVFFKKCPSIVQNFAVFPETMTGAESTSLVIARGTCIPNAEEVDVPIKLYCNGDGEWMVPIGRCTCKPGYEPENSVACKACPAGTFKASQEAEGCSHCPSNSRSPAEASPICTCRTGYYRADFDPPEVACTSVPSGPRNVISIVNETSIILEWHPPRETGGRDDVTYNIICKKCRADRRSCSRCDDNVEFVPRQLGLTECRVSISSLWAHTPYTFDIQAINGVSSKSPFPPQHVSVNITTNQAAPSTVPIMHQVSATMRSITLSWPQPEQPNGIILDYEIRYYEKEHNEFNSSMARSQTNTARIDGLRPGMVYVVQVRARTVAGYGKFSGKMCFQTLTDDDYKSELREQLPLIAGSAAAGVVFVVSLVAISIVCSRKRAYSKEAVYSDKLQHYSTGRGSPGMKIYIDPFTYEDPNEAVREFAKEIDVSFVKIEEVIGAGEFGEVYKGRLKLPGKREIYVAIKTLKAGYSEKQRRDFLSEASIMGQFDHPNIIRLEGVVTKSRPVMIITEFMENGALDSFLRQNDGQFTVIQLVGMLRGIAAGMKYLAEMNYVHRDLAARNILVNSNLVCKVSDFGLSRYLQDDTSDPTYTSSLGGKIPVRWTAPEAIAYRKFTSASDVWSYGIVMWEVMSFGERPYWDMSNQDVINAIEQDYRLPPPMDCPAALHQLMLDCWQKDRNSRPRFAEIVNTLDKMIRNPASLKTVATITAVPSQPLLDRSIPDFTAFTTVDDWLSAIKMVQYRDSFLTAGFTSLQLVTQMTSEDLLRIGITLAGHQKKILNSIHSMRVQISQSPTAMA

Another assay deals with T3, PLK4 (Homo sapiens, UniProt O00444).
T3 sequence (O00444 1-970): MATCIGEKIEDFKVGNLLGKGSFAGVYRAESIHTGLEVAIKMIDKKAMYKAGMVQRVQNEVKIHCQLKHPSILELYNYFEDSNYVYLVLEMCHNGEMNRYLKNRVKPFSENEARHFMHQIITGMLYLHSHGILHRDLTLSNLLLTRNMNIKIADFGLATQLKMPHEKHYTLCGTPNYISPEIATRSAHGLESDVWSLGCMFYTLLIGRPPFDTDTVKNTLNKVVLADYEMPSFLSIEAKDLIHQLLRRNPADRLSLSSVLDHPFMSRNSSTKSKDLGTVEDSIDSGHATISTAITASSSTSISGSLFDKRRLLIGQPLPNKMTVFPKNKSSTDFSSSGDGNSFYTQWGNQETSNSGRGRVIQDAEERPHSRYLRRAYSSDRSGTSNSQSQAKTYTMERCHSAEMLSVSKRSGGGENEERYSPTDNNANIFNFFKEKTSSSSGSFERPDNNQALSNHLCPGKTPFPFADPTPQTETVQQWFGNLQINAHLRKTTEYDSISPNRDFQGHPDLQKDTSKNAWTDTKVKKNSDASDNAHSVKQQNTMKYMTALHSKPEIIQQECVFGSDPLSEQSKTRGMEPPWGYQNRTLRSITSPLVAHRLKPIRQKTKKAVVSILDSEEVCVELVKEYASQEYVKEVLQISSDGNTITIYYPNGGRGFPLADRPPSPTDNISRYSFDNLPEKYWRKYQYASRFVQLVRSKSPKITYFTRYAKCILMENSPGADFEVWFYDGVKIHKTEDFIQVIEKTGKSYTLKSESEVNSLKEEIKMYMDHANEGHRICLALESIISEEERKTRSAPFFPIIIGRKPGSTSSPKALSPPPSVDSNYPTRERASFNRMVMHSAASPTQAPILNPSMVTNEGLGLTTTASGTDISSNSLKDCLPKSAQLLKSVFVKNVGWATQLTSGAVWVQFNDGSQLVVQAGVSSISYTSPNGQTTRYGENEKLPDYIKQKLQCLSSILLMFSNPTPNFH

Chain of CDKL1 (Q00532 whole entry): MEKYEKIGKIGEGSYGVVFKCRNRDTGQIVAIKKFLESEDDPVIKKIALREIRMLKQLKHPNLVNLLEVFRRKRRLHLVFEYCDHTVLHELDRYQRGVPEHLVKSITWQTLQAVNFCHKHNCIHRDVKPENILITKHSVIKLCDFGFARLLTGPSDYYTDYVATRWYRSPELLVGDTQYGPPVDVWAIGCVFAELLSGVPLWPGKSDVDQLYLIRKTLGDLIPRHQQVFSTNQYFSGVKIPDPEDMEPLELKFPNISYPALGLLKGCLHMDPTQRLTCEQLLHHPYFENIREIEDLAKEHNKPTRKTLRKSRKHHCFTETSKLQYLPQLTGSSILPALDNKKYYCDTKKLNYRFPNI
Chain of PCTAIRE1 (Q00536 whole entry): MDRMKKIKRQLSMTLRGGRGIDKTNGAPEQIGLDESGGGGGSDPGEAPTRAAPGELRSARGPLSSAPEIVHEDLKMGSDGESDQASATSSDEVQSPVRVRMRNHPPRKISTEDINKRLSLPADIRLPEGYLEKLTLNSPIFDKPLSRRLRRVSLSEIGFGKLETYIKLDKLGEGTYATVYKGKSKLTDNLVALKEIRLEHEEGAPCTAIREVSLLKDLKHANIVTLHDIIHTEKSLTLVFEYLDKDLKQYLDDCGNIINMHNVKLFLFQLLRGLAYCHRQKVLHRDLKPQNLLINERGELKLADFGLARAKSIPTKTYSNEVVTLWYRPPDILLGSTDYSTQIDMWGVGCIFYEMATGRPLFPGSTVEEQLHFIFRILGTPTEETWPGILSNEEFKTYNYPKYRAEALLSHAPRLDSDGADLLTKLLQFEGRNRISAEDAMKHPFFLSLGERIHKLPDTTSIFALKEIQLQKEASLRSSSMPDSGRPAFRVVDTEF
Chain of BRAF (P15056 whole entry): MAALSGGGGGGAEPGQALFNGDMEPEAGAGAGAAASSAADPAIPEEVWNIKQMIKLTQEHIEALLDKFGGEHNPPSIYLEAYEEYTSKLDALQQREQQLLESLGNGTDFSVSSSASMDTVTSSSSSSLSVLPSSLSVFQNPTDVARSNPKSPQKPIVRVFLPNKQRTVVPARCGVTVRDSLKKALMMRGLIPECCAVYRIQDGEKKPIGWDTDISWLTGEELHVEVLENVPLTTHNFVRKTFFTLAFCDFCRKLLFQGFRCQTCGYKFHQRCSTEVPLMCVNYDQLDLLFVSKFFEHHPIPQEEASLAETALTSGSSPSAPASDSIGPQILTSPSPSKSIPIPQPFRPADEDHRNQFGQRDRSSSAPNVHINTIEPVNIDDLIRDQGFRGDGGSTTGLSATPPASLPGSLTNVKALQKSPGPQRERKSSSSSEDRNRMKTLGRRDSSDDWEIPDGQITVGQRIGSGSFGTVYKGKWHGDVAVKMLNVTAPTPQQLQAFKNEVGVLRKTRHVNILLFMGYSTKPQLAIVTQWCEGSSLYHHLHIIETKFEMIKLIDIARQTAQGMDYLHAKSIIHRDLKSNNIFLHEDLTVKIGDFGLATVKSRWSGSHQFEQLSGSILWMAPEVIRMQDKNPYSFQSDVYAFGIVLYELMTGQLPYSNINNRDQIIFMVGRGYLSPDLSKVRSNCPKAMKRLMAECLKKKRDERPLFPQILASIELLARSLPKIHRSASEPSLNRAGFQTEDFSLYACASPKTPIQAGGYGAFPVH
Chain of CK1d (P48730 whole entry): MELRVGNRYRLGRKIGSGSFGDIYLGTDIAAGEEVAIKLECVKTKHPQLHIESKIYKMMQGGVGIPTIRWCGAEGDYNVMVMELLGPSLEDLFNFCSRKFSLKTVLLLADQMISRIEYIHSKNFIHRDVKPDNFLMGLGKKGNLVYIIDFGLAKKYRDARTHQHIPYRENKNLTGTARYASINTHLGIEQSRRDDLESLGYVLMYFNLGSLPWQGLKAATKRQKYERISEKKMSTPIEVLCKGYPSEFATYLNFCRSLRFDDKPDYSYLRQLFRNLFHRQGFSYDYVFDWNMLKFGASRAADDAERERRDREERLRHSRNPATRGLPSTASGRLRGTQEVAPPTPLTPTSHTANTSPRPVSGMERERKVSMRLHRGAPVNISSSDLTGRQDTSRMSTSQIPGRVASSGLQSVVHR

In the case of `COc1ccc(O)c(Nc2ncc3cc(-c4ccc(-c5cccc(C)n5)cc4Cl)c(=O)n(CCCCN)c3n2)c1` [compound 34, 8-(4-Aminobutyl)-6-(2-chloro-4-(6-methylpyridin-2-yl)phenyl)-2-((2-hydroxy-5-methoxy-phenyl)amino)pyrido[2,3-d]pyrimidin-7(8H)-one], the “dTm 34” value was 1.1 °C at BRAF; 1.5 °C at CDKL1; 1.3 °C at CK1d; -0.8 °C on DMPK1; 5.2 °C on EphB1; 0.6 °C at PCTAIRE1. For the same compound, the “dTm 34” value at PLK4 was 8.8 °C.

On to `Cc1cccc(-c2ccc(-c3cc4cnc(Nc5ccc(F)c(CO)c5)nc4n(CCCCN)c3=O)c(Cl)c2)n1` [compound 33, 8-(4-Aminobutyl)-6-(2-chloro-4-(6-methylpyridin-2-yl)phenyl)-2-((4-fluoro-3-(hydroxymethyl)phenyl)amino)pyrido[2,3-d]pyrimidin-7(8H)-one], for which the “dTm 33” value at BRAF is 6.3 °C; at CDKL1, 2.0 °C; at CK1d it was 2.2 °C; on DMPK1, -4.7 °C; at EphB1 it was 6.5 °C; on PCTAIRE1 it was 5.2 °C. Besides, the “dTm 33” value on PLK4 turned out to be 13.1 °C.

`COc1cc(N2CCOCC2)ccc1Nc1ncc2cc(-c3ccc(-c4cccc(C)n4)cc3Cl)c(=O)n(CCCCN)c2n1` [compound 35, 8-(4-Aminobutyl)-6-(2-chloro-4-(6-methylpyridin-2-yl)phenyl)-2-((2-methoxy-4-morpholino-phenyl)amino)pyrido[2,3-d]pyrimidin-7(8H)-one]: the “dTm 35” value is 0.8 °C at BRAF; 0.3 °C on CDKL1; 1.8 °C on CK1d; -2.1 °C on DMPK1; 6.0 °C on EphB1; 0.1 °C on PCTAIRE1. The “dTm 35” value on PLK4 was 13.6 °C.

As for `COc1cc(N2CCN(C)CC2)ccc1Nc1ncc2cc(-c3ccc(-c4cccc(C)n4)cc3Cl)c(=O)n(CCCCN)c2n1` [compound 36, 8-(4-Aminobutyl)-6-(2-chloro-4-(6-methylpyridin-2-yl)phenyl)-2-((2-methoxy-4-(4-methylpiperazin-1-yl)phenyl)amino)pyrido[2,3-d]pyrimidin-7(8H)-one], the “dTm 36” value at BRAF was 0.8 °C; at CDKL1, 0.8 °C; at CK1d, 1.1 °C; on DMPK1, -1.5 °C; on EphB1 it was 5.5 °C; at PCTAIRE1, 0.2 °C. Besides, the “dTm 36” value at PLK4 stood at 11.8 °C.
